{"source": "patent US20080021107A1", "about": "“USE OF AMINO ACIDS FOR TREATMENT OF VARIOUS CONDITIONS” (UNIVERSITY OF ROCHESTER, priority 2002, published 2008)", "key": {"[1]": {"system": "hot flashes in post-menopausal women", "assay": "Oral administration to patients experiencing hot flashes as symptoms of postmenopausal hormone variation", "conditions": "for side effects: human, in vivo, po", "from_the_text": "Administration of L-Norleucine to Patients Experiencing Hot Flashes as Symptoms of Postmenopausal Hormone Variation […]"}, "[2]": {"conditions": "Backonja et al. 1998; Rowbotham et al. 1998; cited from earlier work"}, "[3]": {"conditions": "high-dose oral L-methionine; van der Griend et al. 2002; cited from earlier work"}, "palmar hyperhidrosis": {"system": "palmar hyperhidrosis", "conditions": "L-methionine 1 g bid orally"}, "[4]": {"system": "hot flashes as a result of the post-partum state", "conditions": "L-methionine 1 g bid orally"}}, "data": [{"smiles": "NCC1(CC(=O)O)CCCCC1", "note": "[gabapentin, Gabapentin, reference compound]", "values": [{"measurement": "tolerability", "setting": "[1]; Example 1 Patient No. 1, gabapentin therapy for several days", "value": "unable to tolerate the drug due to severe dizziness"}, {"measurement": "patient withdrawal rate due to side effects (most often sleepiness and dizziness)", "setting": "[2]", "value": "approximately 13%"}]}, {"smiles": "CSCC[C@H](N)C(=O)O", "note": "[L-methionine]", "values": [{"measurement": "improvement in hot flash frequency", "setting": "[1]; Patient No. 1, about 10 hot flashes per day, L-methionine 1 gram tid orally, after three weeks, benefit persisted for 3 months of therapy", "value": 90, "unit": "%"}, {"measurement": "change in symptoms", "setting": "[1]; Patient No. 1, L-methionine 500 mg three times daily for two weeks", "value": "without noticing an appreciable change"}, {"measurement": "improvement in hot flash frequency", "setting": "[1]; Patient No. 2, about 15 hot flashes per day, L-methionine 1 g tid orally, after three weeks, benefit persisted for 5 months of therapy", "value": 90, "unit": "%"}, {"measurement": "improvement in nighttime hot flash frequency", "setting": "[1]; Patient No. 3, about 7 hot flashes per day, L-methionine 500 mg tid orally, after three weeks", "value": 66, "unit": "%"}, {"measurement": "improvement in both nighttime and daytime hot flash severity", "setting": "[1]; Patient No. 3, L-methionine 500 mg tid orally, after three weeks", "value": 50, "unit": "%"}, {"measurement": "side effects", "setting": "[1]", "value": "No side effects"}, {"measurement": "increase in serum homocysteine levels", "setting": "[3]", "value": 10, "unit": "fold"}, {"measurement": "side effects", "setting": "palmar hyperhidrosis", "value": "No side effects"}, {"measurement": "reduction in the subjective severity of palmar hyperhidrosis", "setting": "palmar hyperhidrosis; person, after 3 weeks", "value": 50, "unit": "%"}, {"measurement": "side effects", "setting": "[4]", "value": "No side effects"}, {"measurement": "improvement in hot flash frequency", "setting": "[4]; person, 3 severe nighttime and 2 moderate daytime hot flashes per day, after three weeks", "value": 100, "unit": "%"}]}, {"smiles": "CCCC[C@H](N)C(=O)O", "note": "[L-norleucine]", "values": [{"measurement": "reduction in hot flashes", "setting": "[1]; Example 4 Patient No. 1, 6 hot flashes/day at baseline, oral L-norleucine 1.5 grams 2x/day, starting 10 days after initiating, maintained for 3.5 months", "value": 70, "unit": "%"}, {"measurement": "reduction in hot flashes", "setting": "[1]; Example 4 Patient No. 2, 8 hot flashes/day at baseline, oral L-norleucine 1 gram 2x/day, starting 4 days after initiating, maintained for 1.5 months", "value": 87, "unit": "%"}, {"measurement": "side effects", "setting": "[1]", "value": "No side effects"}]}]}
